What was measured:
[1] = target: KRAS^G12D mutant protein binding to RBD region fragment of RAF1 protein (Homo sapiens (Human), UniProt P01116, G12D); test: KRAS-RAF1 binding assay (HTRF), KRAS G12D; settings: His-KRAS^G12D, GST-RAF1-RBD, GTP
Protocol: (§1) GST-RAF1-RBD was purchased from BPS Bioscience; Cat. NO.: 100519; KRAS^G12D was purchased from BPS Bioscience; Cat. NO.: 100623; KRAS^wt was purchased from Reactionbiology; GTP was purchased from Sigma; Cat. NO.: G8877; Mab Anti GST-XL665 was purchased from cisbio; Cat. NO.: 61GSTXLF; Eu-W1024-anti-6×HIS was purchased from PE; Cat. NO.: AD0111; ProxiPlate-384-Plates was purchased from PerkinElmer; Cat. NO.: 6008289; DMSO was purchased from VWR AMRESCO; Cat. NO.: 0231-500ML; microplate reader was purchased from PerkinElmer; Cat. NO.: Envison;
(§2) This experiment is intended to investigate the inhibitory effect of compounds on the binding of KRAS^G12D mutant protein or KRAS^Wt (wild type) protein to fragments of the RBD region fragment of RAF1 protein. A 500×3-fold gradient concentration stock of compound was prepared using DMSO and diluted 50-fold into a 10× stock of compound using reaction buffer. To the reaction wells of an ELISA plate (ProxiPlate-384-Plates), was first added 3 µL of His-KRAS^G12D protein or KRAS^wt protein, then added 1 μL of 200 µM GTP and incubated for 30 min, then added 2 μL of 10× compound or reaction buffer with 2% DMSO (positive control) and incubated for 30 min, then added 4 μL of GST-RAF1-RBD protein or reaction buffer (negative control) and incubated for 15 min, then added […] anti-His antibody and XL665-labeled anti-GST antibody mixed well in advance and incubated for 60 min before reading HTRF signal by microplate reader. The inhibition ratio of compounds on KRAS protein (G12D mutant or wild type) and RAF1 binding was calculated IR (%)=(positive control signal-compound well signal)/(positive control signal-negative control signal)×100% and IC50 values were calculated by fitting compound concentrations and corresponding inhibition ratios using the Prism 8 four-parameter method. […] While the inhibition IC50 values of the compounds on the binding of KRAS^wt (wild type) protein to the RBD region fragment of RAF1 protein was more than 40 nM or 100 nM, or more than 500 nM, or even more than 1 μM or 2 μM.

[2] = target: KRAS^wt (wild type) protein binding to RBD region fragment of RAF1 protein (Homo sapiens (Human), UniProt P01116); test: KRAS-RAF1 binding assay (HTRF), KRAS wild type; settings: GST-RAF1-RBD, GTP
Protocol: as §1, §2

[3] = tested on: p-ERK in AGS cells (KRAS^G12D mutation); test: Cell p-ERK detection assay; type: cell-based, human; settings: 3 h incubation, HTRF
Protocol: AGS was purchased from ATCC; Cat. NO.: CRL-1739; F12K was purchased from Gibco; Cat. NO.: 21127-022; FBS was purchased from Gibco; Cat. NO.: 10099-141C; Trypsin (containing EDTA) was purchased from Gibco; Cat. NO.: 25200-072; DMSO was purchased from VWRAMRESCO; Cat. NO.: 0231-500ML; 96-well cell culture plate was purchased from Corning; Cat. NO.: 3599; An white background opaque 96-well plate was purchased from Cisbio; Cat. NO.: 66PL96025; Advance ERK phospho-T202/Y204 kit was purchased from Cisbio; Cat. NO.: 64AERPEH; Cell Counters were purchased from CHEMOMETEC; Model NO.: NC-200; microplate reader was purchased from PerkinElmer; Model NO.: Envison.
AGS is an endogenous human gastric adenocarcinoma cell line containing KRAS^G12D mutation, cultured in F12K+10% FBS medium. On the first day of the experiment, cells in the logarithmic growth phase were taken, digested with trypsin (containing EDTA), collected, and counted, and approximately 20,000 cells/well were inoculated in 96-well cell culture plates and cultured overnight in a 5% CO2 incubator. A 1000×3.16-fold gradient concentration stock of the compound was prepared using DMSO, diluted 200-fold into a 5× compound stock using the medium described above, and a 5× compound stock was added to each cell culture well the day after cell inoculating at a final concentration of 1× and a DMSO content of 0.1%. DMSO was used as an experimental control. After the compound was added and the incubation was continued for 3 h, the medium in the culture wells was removed, […] of cell lysis solution (from Advance ERK phospho-T202/Y204 kit, the same below) was added to each well, mixed well and incubated for 30 min, then […] of the mixed solution was transferred to a white background opaque 96-well plate, and another well was taken as a blank well with adding […] of cell lysis solution. After the transfer, […] of p-ERK HTRF antibody mixed solution (from Advance ERK phospho-T202/Y204 kit) was added to each well, after incubation for 4 h, HTRF fluorescence value (RLU) was read by a microplate reader, and p-ERK level inhibition ratio of the compound was calculated IR (%)=(RLU control-RLU compound)/(RLU control-RLU blank)×100%, compound concentration and corresponding cell p-ERK level inhibition ratio were fitted using Prism 8 four-parameter method, and IC50 value was calculated.

[4] = tested on: AGS cells (KRAS^G12D mutation); test: Cell proliferation inhibition assay (3D, CellTiter-Glo), AGS; type: cell-based, human; settings: 3D cell model, 5 days
Source text: (§3) AsPC-1 was purchased from ATCC; Cat. NO.: CRL-1682; AGS was purchased from ATCC; Cat. NO.: CRL-1739; RPMI1640 was purchased from Gibco; Cat. NO.: 11875-093 2235123; F12K was purchased from Gibco; Cat. NO.: 21127-022; FBS was purchased from Gibco; Cat. NO.: 10099-141C; Trypsin (containing EDTA) was purchased from Gibco; Cat. NO.: 25200-072; CellTiter Glo-3D was purchased from Progema; Cat. NO.: G9683; 384-well sphere plates were purchased from coming; Cat. NO.: 3830; White background opaque 384-well plates were purchased from coming; Cat. NO.: 3570; Cell Counters were purchased from CHEMOMETEC; Model NO.: NC-200; microplate reader was purchased from PerkinElmer; Model NO.: Envison;
(§4) AsPC-1 is an endogenous human pancreatic cancer cell containing KRAS^G12D mutation, which is cultured in RPMI-1640 medium containing 10% FBS; AGS human gastric cancer cell line containing KRAS^G12D mutation, cultured in F-12K medium containing 10% FBS. Cells in the logarithmic growth phase were taken, digested with trypsin (containing EDTA), harvested and counted, and inoculated with 800 AsPC-1 cells/well or 400 AGS cells/well, respectively, in 384-well sphere plates and cultured overnight at 5% C02 to establish a 3D cell model. A 3.16-fold gradient concentration stock solution of 1000× compound was prepared using DMSO, diluted 100-fold into a 10× compound stock solution using media, and a 10× compound stock solution was added to each cell culture well the day after cell inoculating at a final concentration of 1× with a DMSO content of 0.1%. DMSO was used as an experimental control (control) and culture medium as a blank control (blank). After the addition of compounds, the cells were cultured for 5 days. […] CellTiter-Glo working solution was added to each well, mixed well, and incubated for 30 min. After standing for 30 min at room temperature, 40 μl of the mixed solution was transferred to a white background opaque 384-well plate. Luminescence chemiluminescence value was read on a microplate reader, and the cell proliferation inhibition ratio was calculated, IR (%)=(RLU control-RLU compound)/(RLU control-RLU blank)×100%. XLFit four-parameter method was used to fit the gradient dilution concentration of compounds and the corresponding cell proliferation inhibition ratio, and the IC50 value was calculated. […] Results for exemplary of the example compounds are shown in Table 3 below. - indicates not detected.

[5] = tested on: AsPC-1 cells (KRAS^G12D mutation); test: Cell proliferation inhibition assay (3D, CellTiter-Glo), AsPC-1; type: cell-based, human; settings: 3D cell model, 5 days
Source text: as §3, §4

KRAS^G12D mutant protein binding to RBD region fragment of RAF1 protein, sequence (P01116-2 other isoform, or with tags, fused parts or gaps G12D): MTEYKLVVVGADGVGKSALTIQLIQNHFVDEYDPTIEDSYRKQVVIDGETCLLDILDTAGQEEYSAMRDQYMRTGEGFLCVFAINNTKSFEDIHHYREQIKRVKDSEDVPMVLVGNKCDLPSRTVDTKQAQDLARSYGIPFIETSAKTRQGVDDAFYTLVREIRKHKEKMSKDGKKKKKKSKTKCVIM
KRAS^wt (wild type) protein binding to RBD region fragment of RAF1 protein, sequence (P01116-2 other isoform, or with tags, fused parts or gaps): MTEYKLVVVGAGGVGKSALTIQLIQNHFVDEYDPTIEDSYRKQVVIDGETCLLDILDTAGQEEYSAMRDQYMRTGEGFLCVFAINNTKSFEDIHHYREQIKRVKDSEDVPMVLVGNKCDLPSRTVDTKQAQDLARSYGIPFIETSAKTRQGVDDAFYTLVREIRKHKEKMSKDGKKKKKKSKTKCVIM

SMILES | IC50 [1] | IC50 [2] | IC50 ([3]; Homo sapiens, AGS, 3 h) | IC50 ([4]; Homo sapiens, AGS, 120 h) | IC50 ([5]; Homo sapiens, ASPC1, 120 h) | IC50 [3] | IC50 [4] | IC50 [5]
C#Cc1cccc2cc(O)cc(-c3ncc4c(N5C[C@H]6C=C[C@@H](C5)N6)nc(OCC56CCCN5CC(F)(F)C6)nc4c3F)c12 (stereo partly drawn) [Example Z15, 4-(4-((1R,5S)-3,8-diazabicyclo[3.2.1]oct-6-en-3-yl)-2-((2,2-difluorotetrahydro-1H-pyrrolizin-7a(5H)-yl)methoxy)-8-fluoropyrido[4,3-d]pyrimidin-7-yl)-5-ethynylnaphthalen-2-ol] | 33 nM | > 3000 nM | 60.7 nM | 194 nM | 947 nM | – | – | –
C#Cc1cccc2cc(O)cc(-c3ncc4c(N5CC6CCC(C5)N6)nc(OCC56CCCN5CCC(=C)C6)nc4c3F)c12 [Example Z18, 4-(4-((1R,5S)-3,8-diazabicyclo[3.2.1]octan-3-yl)-8-fluoro-2-((7-methylenehexahydroindolin-8a(1H)-yl)methoxy)pyrido[4,3-d]pyrimidin-7-yl)-5-ethynylnaphthalen-2-ol] | 59.4 nM | > 1000 nM | – | – | – | 7.57 nM | 45.3 nM | 75.5 nM
C#Cc1cccc2cc(O)cc(-c3ncc4c(N5C[C@H]6CC[C@@H](C5)N6)nc(OCC56CCCN5CC(=CF)C6)nc4c3F)c12 (stereo partly drawn) [Example Z5, 4-(4-((1R,5S)-3,8-diazabicyclo[3.2.1]octan-3-yl)-8-fluoro-2-((2-(fluoromethylene)tetrahydro-1H-pyrrolizin-7a(5H)-yl)methoxy)pyrido[4,3-d]pyrimidin-7-yl)-5-ethynylnaphthalen-2-ol] | 36.3 nM | 43.7 nM | 1.16 nM | 4.5 nM | 29.4 nM | – | – | –
C#Cc1cccc2cc(O)cc(-c3ncc4c(N5CC6CCC(C5)C6N)nc(OCC56CCCN5CCC6)nc4c3F)c12 (stereo not drawn) [Example Z1] | 256 nM | 2610 nM | – | – | – | – | – | –
C#Cc1cccc2cc(O)cc(-c3ncc4c(N5C[C@H]6C=C[C@@H](C5)N6)nc(OCC56CCCN5CCC6)nc4c3F)c12 [Example Z4, 4-(4-((1R,5S)-3,8-diazabicyclo[3.2.1]oct-6-en-3-yl)-8-fluoro-2-((tetrahydro-1H-pyrrolizin-7a(5H)-yl)methoxy)pyrido[4,3-d]pyrimidin-7-yl)-5-ethynylnaphthalen-2-ol] | 20.6 nM | 393 nM | 47.1 nM | 360 nM | – | – | – | –
C#Cc1cccc2cccc(-c3ncc4c(N5C[C@H]6C=C[C@@H](C5)N6)nc(OCC56CCCN5CCC6)nc4c3F)c12 [Example Z6, 4-((1R,5S)-3,8-diazabicyclo[3.2.1]oct-6-en-3-yl)-7-(8-ethynylnaphthalen-1-yl)-8-fluoro-2-((tetrahydro-1H-pyrrolizin-7a(5H)-yl)methoxy)pyrido[4,3-d]pyrimidine] | 51.6 nM | > 10000 nM | 426 nM | 815 nM | – | – | – | –
C#Cc1cccc2cc(O)cc(-c3ncc4c(N5C[C@@H]6N[C@H](C5)[C@@H]5C[C@@H]56)nc(OCC56CCCN5CCC6)nc4c3F)c12 [Example Z10, 5-ethynyl-4-(8-fluoro-2-((tetrahydro-1H-pyrrolizin-7a(5H)-yl)methoxy)-4-((1R, 2S, 4R, 5S)-7,9-diazatricyclo[3.3.1.0^2,4]nonan-7-yl)pyrido[4,3-d]pyrimidin-7-yl)naphthalen-2-ol] | 62.9 nM | 119 nM | 215 nM | – | – | – | – | –
C#Cc1cccc2cc(O)cc(-c3ncc4c(N5CC6CCC(C5)C6N)nc(OCC56CCCN5CCC6)nc4c3F)c12 (stereo not drawn) [Example Z2] | 186 nM | 788 nM | – | – | – | – | – | –
C=C1CN2CCCC2(COc2nc(N3C[C@H]4CC[C@@H](C3)N4)c3cnc(-c4cc(O)cc5cccc(F)c45)c(F)c3n2)C1 (stereo partly drawn) [Example Z24, 4-(4-((1R,5S)-3,8-diazabicyclo[3.2.1]octan-3-yl)-8-fluoro-2-((2-methylenetetrahydro-1H-pyrrolizin-7a(5H)-yl)methoxy)pyrido[4,3-d]pyrimidin-7-yl)-5-fluoronaphthalen-2-ol] | – | – | 3.59 nM | 3.3 nM | 56 nM | – | – | –
C#Cc1cccc2cccc(-c3ncc4c(N5C[C@H]6CC[C@@H](C5)N6)nc(OCC56CC(=C)CN5CC(=C)C6)nc4c3F)c12 [Example Z190, 4-((1R,5S)-3,8-diazabicyclo[3.2.1]octan-3-yl)-2-((2,6-dimethylenetetrahydro-1H-pyrrolizin-7a(5H)-yl)methoxy)-7-(8-ethynylnaphthalen-1-yl)-8-fluoropyrido[4,3-d]pyrimidine] | – | – | 105 nM | 204 nM | 485 nM | – | – | –

Source: patent publication US20240270758A1, “PYRIDINO-OR PYRIMIDO-CYCLIC COMPOUND, PREPARATION METHOD THEREFOR AND MEDICAL USE THEREOF” (Genfleet Therapeutics (Shanghai) Inc., priority 2021, published 2024)
